Measurements taken from PubChem BioAssay (NCI).
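How tested: cells in 96-well plates exposed to compound for 48 hours at five concentrations. The concentration for 50% growth inhibition is given as GI50. TGI marks complete inhibition of growth.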

What was measured:
Assay in all cases: growth of human tumour cells (NCI), 48 h
[1] = test system: MOLT-4 leukemia
[2] = test system: MALME-3M melanoma
[3] = test system: M14 melanoma
[4] = test system: SK-MEL-5 melanoma
[5] = test system: HCC-2998 colon
[6] = test system: SF-295 CNS
[7] = test system: HL-60(TB) leukemia
[8] = test system: RPMI-8226 leukemia
[9] = test system: SK-MEL-28 melanoma
[10] = test system: UACC-257 melanoma
[11] = test system: UACC-62 melanoma
[12] = test system: SK-OV-3 ovarian
[13] = test system: DU-145 prostate
[14] = test system: IGROV1 ovarian
[15] = test system: SNB-19 CNS
[16] = test system: SR leukemia
[17] = test system: SK-MEL-2 melanoma
[18] = test system: SW-620 colon
[19] = test system: OVCAR-5 ovarian
[20] = test system: CCRF-CEM leukemia
[21] = test system: SF-539 CNS
[22] = test system: NCI/ADR-RES ovarian
[23] = test system: MCF7 breast
[24] = test system: 786-0 renal
[25] = test system: SNB-75 CNS
[26] = test system: HT29 colon
[27] = test system: COLO 205 colon
[28] = test system: PC-3 prostate
[29] = test system: UO-31 renal
[30] = test system: A549 NSCLC
[31] = test system: BT-549 breast
[32] = test system: MDA-MB-231 breast
[33] = test system: NCI-H522 lung
[34] = test system: HOP-62 NSCLC
[35] = test system: K-562 leukemia
[36] = test system: LOX IMVI melanoma
[37] = test system: ACHN renal
[38] = test system: CAKI-1 renal
[39] = test system: NCI-H460 lung
[40] = test system: OVCAR-4 ovarian
[41] = test system: HOP-92 NSCLC
[42] = test system: OVCAR-3 ovarian
[43] = test system: RXF 393 renal
[44] = test system: U251 CNS
[45] = test system: OVCAR-8 ovarian
[46] = test system: EKVX NSCLC
[47] = test system: SN12C renal
[48] = test system: HS 578T breast
[49] = test system: SF-268 CNS
[50] = test system: TK-10 renal
[51] = test system: MDA-MB-435
[52] = test system: HCT-15 colon
[53] = test system: T-47D breast
[54] = test system: KM12 colon
[55] = test system: NCI-H23 lung
[56] = test system: NCI-H226 lung

COc1cc(/C=C\[N+](=O)[O-])ccc1OCc1ccccc1
GI50 [1]: 2.7 µM
TGI [1]: 7.61 µM
GI50 [2]: 2.54 µM
TGI [2]: 9.38 µM
GI50 [3]: 1.65 µM
TGI [3]: 4.31 µM
GI50 [4]: 1.4 µM
TGI [4]: 3.05 µM
GI50 [5]: 1.86 µM
TGI [5]: 3.63 µM
GI50 [6]: 4.07 µM
TGI [6]: 18.8 µM
GI50 [7]: 2.48 µM
TGI [7]: 6.16 µM
GI50 [8]: 0.43 µM
TGI [8]: 2.73 µM
GI50 [9]: 2.08 µM
TGI [9]: 4.5 µM
GI50 [10]: 2.08 µM
TGI [10]: 5.83 µM
GI50 [11]: 1.7 µM
TGI [11]: 4.67 µM
GI50 [12]: 4.65 µM
TGI [12]: 15.2 µM
GI50 [13]: 1.8 µM
TGI [13]: 3.52 µM
GI50 [14]: 2.48 µM
TGI [14]: 7.6 µM
GI50 [15]: 2.64 µM
TGI [15]: 8.41 µM
GI50 [16]: 1.46 µM
TGI [16]: 5.27 µM
GI50 [17]: 3.67 µM
TGI [17]: 14.6 µM
GI50 [18]: 1.49 µM
TGI [18]: 4.02 µM
GI50 [19]: 3.29 µM
TGI [19]: 13.7 µM
GI50 [20]: 3.13 µM
TGI [20]: 11.5 µM
GI50 [21]: 2.09 µM
TGI [21]: 4.18 µM
GI50 [22]: 3.5 µM
TGI [22]: 24.9 µM
GI50 [23]: 1.44 µM
TGI [23]: 3.27 µM
GI50 [24]: 1.84 µM
TGI [24]: 3.74 µM
GI50 [25]: 1.63 µM
TGI [25]: 6.79 µM
GI50 [26]: 1.94 µM
TGI [26]: 4 µM
GI50 [27]: 1.67 µM
TGI [27]: 3.37 µM
GI50 [28]: 3.5 µM
TGI [28]: 25.4 µM
GI50 [29]: 1.54 µM
TGI [29]: 3.06 µM
GI50 [30]: 3.17 µM
TGI [30]: 10.5 µM
GI50 [31]: 1.58 µM
TGI [31]: 3.3 µM
GI50 [32]: 1.85 µM
TGI [32]: 5.55 µM
GI50 [33]: 2.04 µM
TGI [33]: 6.62 µM
GI50 [34]: 2.35 µM
TGI [34]: 6.58 µM
GI50 [35]: 2.06 µM
TGI [35]: 11.1 µM
GI50 [36]: 1 µM
TGI [36]: 2.3 µM
GI50 [37]: 1.99 µM
TGI [37]: 4.36 µM
GI50 [38]: 3.05 µM
TGI [38]: 13.2 µM
GI50 [39]: 3.98 µM
TGI [39]: 15.9 µM
GI50 [40]: 3.07 µM
TGI [40]: 13.1 µM
GI50 [41]: 12.5 µM
TGI [41]: 31.4 µM
GI50 [42]: 1.62 µM
TGI [42]: 3.71 µM
GI50 [43]: 1.8 µM
TGI [43]: 3.73 µM
GI50 [44]: 1.55 µM
TGI [44]: 3.01 µM
GI50 [45]: 2.91 µM
TGI [45]: 9.56 µM
GI50 [46]: 3.71 µM
TGI [46]: 17.6 µM
GI50 [47]: 2.77 µM
TGI [47]: 8.42 µM
GI50 [48]: 3.81 µM
TGI [48]: > 100 µM
GI50 [49]: 2.83 µM
TGI [49]: 11.5 µM
GI50 [50]: 1.93 µM
TGI [50]: 5.27 µM
GI50 [51]: 2.37 µM
TGI [51]: 10.3 µM
GI50 [52]: 1.72 µM
TGI [52]: 3.51 µM
GI50 [53]: 2.25 µM
TGI [53]: 7.44 µM
GI50 [54]: 3.06 µM
TGI [54]: 10.8 µM
GI50 [55]: 2.07 µM
TGI [55]: 5.26 µM
GI50 [56]: 2.26 µM
TGI [56]: 5.47 µM
